Results as given in patent US10993939B2, “Compositions for treating or preventing vasomotor symptoms” (Mitsubishi Tanabe Pharma Corporation, priority 2016, dated 2021).

How the values were obtained:
[1] = tested on: female subjects experiencing Vasomotor Symptoms (VMS); experiment: Phase Ib study: frequency of vasomotor symptoms (VMS); assay type: in vivo, human; parameters: key to Mean observed value in VMS frequency (moderate and severe VMS): moderate + severe VMS events per day
Excerpt: (§1) Study Design: This was a Phase Ib, randomized, double blind, placebo controlled study. The study design is illustrated in FIG. 2. Following the initial Screening visit, eligible subjects was given an actigraphy event monitor (watch) to record episodes of flashing as Vasomotor symptoms (VMS) events during a period of 2 weeks during Screening, in order to confirm VMS eligibility criteria (>7 VMS/day on average during 2 weeks). Subjects may be required to return to the site during the Screening period to read or exchange the actigraphy event monitor. Subjects deemed eligible following review of VMS data were invited to attend the Clinical research unit (CRU) for one residential period of 16 days duration, including 14 days of Investigational Medicinal Product (IMP) administration. Subjects were admitted to the CRU 1 day prior to dosing (Day −1). No medication was administered on Day −1. On Day 1, subjects who meet the study eligibility criteria were randomized to receive one dose level of either Compound A (6 subjects) or a matching placebo (2 subjects) in a double-blind manner. Randomized treatment was administered once nightly, starting on Day 1, for a total duration of 14 days.
Fifty (50) mg of Compound A was administered to the female subjects experiencing Vasomotor Symptoms (VMS), and as the above-mentioned assessments, a Frequency of VMS and a Core body temperature assessment were examined.
Here a moderate VMS and a severe VMS were counted as a VMS frequency.

[2] = tested on: female subjects experiencing Vasomotor Symptoms (VMS); experiment: Phase Ib study: core body temperature assessment; assay type: in vivo, human; conditions: 50 mg; within 24 hours post-dose on Visit Day 1, 7, 10 or 14, FIG. 4
Excerpt: as §1, with “days. […]” for “days.”

naive SD rats = experiment: Evaluation of TRPM8 antagonist on core body (rectal) temperature in rats; assay type: in vivo
Procedure: Methods: Compound A (0.3 and 3 mg/kg) or vehicle was orally administered to naive SD rats (n=6). Rectal temperature was measured before, 1, 2, 3 and 6 hours after administration. AUC for 0 to 6 hours was calculated and statistically analyzed.

`O=C(O)c1ccc(S(=O)(=O)N(Cc2ccc(OC(F)(F)F)cc2)c2ncc3ccccc3c2C2CC2)cc1` [Compound A, 4-({(4-cyclopropylisoquinolin-3-yl)[4-(trifluoromethoxy)benzyl]amino}sulfonyl)benzoic acid] was tested, and the “Effect on frequency of VMS versus placebo” value ([1]; 50 mg once nightly, 14 days, FIG. 3) was “reduced the frequency of VMS significantly”, the “Onset of the reduction effect of VMS frequency” value ([1]; 50 mg once nightly, FIG. 3) was “the reduction effect of VMS frequency was shown at Day 2 or later” and the “Mean observed value in VMS frequency (moderate and severe VMS)” value (shortened to “Mean observed value in VMS frequency”) ([1]; Baseline (before dosing), 50 mg group) was 11.2. The “Mean observed value in VMS frequency” value ([1]; Day 1, 50 mg once nightly) was 11.7, the “Mean observed value in VMS frequency” value ([1]; Day 2, 50 mg once nightly) was 6.0 and the “Mean observed value in VMS frequency” value ([1]; Day 3, 50 mg once nightly) was 4.7. The “Mean observed value in VMS frequency” value ([1]; Day 4, 50 mg once nightly) was 4.7, the “Mean observed value in VMS frequency” value ([1]; Day 5, 50 mg once nightly) was 2.7 and the “Mean observed value in VMS frequency” value ([1]; Day 6, 50 mg once nightly) was 2.8. The “Mean observed value in VMS frequency” value ([1]; Day 7, 50 mg once nightly) was 3.0, the “Mean observed value in VMS frequency” value ([1]; Day 8, 50 mg once nightly) was 3.3 and the “Mean observed value in VMS frequency” value ([1]; Day 9, 50 mg once nightly) was 1.3. For the same compound, the “Mean observed value in VMS frequency” value ([1]; Day 10, 50 mg once nightly) was 3.2, the “Mean observed value in VMS frequency” value ([1]; Day 11, 50 mg once nightly) was 2.8 and the “Mean observed value in VMS frequency” value ([1]; Day 12, 50 mg once nightly) was 2.7. For the same compound, the “Mean observed value in VMS frequency” value ([1]; Day 13, 50 mg once nightly) was 2.3, the “Mean observed value in VMS frequency” value ([1]; Day 14, 50 mg once nightly) was 2.3 and the “Change from baseline in core body temperature” value [2] was “reduced the core body temperature significantly”. The “Maximum decrease in rectal temperature (amplitude)” value (naive SD rats; 3 mg/kg orally, at 2 hours after administration, SD rats) was 0.82 °C and the “Rectal temperature compared to vehicle (AUC for 0 to 6 hours)” value (naive SD rats; 0.3 and 3 mg/kg orally, naive SD rats, P<0.01 vs vehicle, FIG. 1) was “significantly reduced rectal temperature”.
